For experiment [1], the system named is RNA polymerase II Serine 5 phosphorylation in A549 cells overexpressing CDK7 mutant (C312S). The experiment in a line: Imaging-based cellular RNA PolII Ser5 phosphorylation assay in A549 cells overexpressing CDK7-mutant (C312S). Format: cell-based, human. To be noted: for IC50: Homo sapiens, A549, A549 cells overexpressing CDK7 mutant (C312S), read-out: CDK7_ A549 mutant hCDK7(pIC50) (converted); for CDK7_ A549 mutant hCDK7(pIC50): A549 cells overexpressing CDK7 mutant (C312S). The procedure:
Data were calculated and analyzed in Phaedra.
From this an IC50 value can be obtained.
In parallel this assay was performed in A549 cells overexpressing CDK7-mutant (C312S) to evaluate the effect of the covalent bond on potency and to screen for potential off-target effects. Mutation of Cysteine to Serine (C312S), a less nucleophilic amino acid, prevents CDK7 inhibitors from covalently binding to CDK7 and from inhibiting CDK7 activity in an irreversible manner. A stably transduced A549 cell pool was generated that overexpresses CDK7 mutant (C312S), but also expresses endogenous CDK7-WT. Covalent binders targeting the cysteine at position 312 will show a shift in potency in A549 cells overexpressing mutant C312S CDK7.

The target of experiment [2] is CDK7/cyclinH/MAT1 trimeric complex (Homo sapiens (Human), UniProt P50613). The experiment can be described thus: In vitro CDK7 assay, potency of irreversible covalent inhibitors (kinact/KI). To be noted: for Ki: CDK7 (20 nM enz.) (KI, μM); for kinact: read-out: CDK7 (20 nM enz.) (kinact, s^−1), 20 nM enz.; for kinact/KI: read-out: CDK7 (20 nM enz.) (kinact/ KI, M^−1*s^−1), 20 nM enz.
Sequence of CDK7/cyclinH/MAT1 trimeric complex (P50613 whole entry): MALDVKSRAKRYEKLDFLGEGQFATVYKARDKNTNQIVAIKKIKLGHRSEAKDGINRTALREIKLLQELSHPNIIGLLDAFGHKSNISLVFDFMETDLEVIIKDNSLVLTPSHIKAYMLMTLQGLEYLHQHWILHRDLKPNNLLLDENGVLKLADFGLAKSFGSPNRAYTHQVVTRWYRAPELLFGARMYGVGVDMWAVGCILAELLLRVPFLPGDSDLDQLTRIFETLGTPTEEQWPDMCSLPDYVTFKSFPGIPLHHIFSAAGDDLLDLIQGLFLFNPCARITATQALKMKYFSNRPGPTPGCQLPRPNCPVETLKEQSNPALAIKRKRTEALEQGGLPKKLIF
Sequence of CDK7/cyclinH/MAT1 trimeric complex (P51946 whole entry partner): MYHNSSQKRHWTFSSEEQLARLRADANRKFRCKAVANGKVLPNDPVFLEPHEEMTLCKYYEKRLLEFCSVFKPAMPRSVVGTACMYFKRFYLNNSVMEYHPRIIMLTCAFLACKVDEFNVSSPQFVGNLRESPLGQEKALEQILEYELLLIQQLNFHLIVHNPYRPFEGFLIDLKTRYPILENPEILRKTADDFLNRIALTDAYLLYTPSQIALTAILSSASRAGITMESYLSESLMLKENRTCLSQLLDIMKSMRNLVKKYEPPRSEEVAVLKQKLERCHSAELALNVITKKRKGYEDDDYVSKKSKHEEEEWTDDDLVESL
Sequence of CDK7/cyclinH/MAT1 trimeric complex (P51948 whole entry partner): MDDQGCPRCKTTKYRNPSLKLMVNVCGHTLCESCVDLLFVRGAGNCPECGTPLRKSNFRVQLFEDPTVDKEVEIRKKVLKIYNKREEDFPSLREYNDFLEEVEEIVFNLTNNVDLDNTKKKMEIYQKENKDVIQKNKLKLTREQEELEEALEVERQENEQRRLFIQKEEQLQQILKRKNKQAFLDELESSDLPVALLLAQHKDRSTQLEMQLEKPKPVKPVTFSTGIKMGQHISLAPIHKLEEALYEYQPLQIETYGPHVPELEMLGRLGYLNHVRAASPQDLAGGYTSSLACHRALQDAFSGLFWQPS

For experiment [3], the system named is RNA polymerase II Serine 5 phosphorylation (CDK7) in A549 cells.

“And” between values parts separate entries of the source, which are not always exact repeats. Equal entries are not always repeated.

In general, kinact refers to the rate constant of inactivation at saturating inhibitor. Regarding `C=CC(=O)N1CC[C@@H](N2CCC(c3cc(C)c4c(c3)Nc3ncnc(N5CCOCC5)c3CO4)CC2)C1` [compound 13], the IC50 in experiment [1] is more than 10000 nM. Besides, in experiment [2] (20 nM enz.), the “CDK7 (20 nM enz.) (kinact, s^−1)” value was 8.3e-05 s⁻¹; the Ki was 0.0781 µM and 0.315 µM. Moreover, in experiment [2], the maximal inactivation rate constant (kinact) is 5.64e-05 s⁻¹. Also, the IC50 in experiment [3] is 275 nM and 234 nM.

For `C=CC(=O)N1CC[C@H](N2CC(c3cc(C)c4c(c3)Nc3ncnc(N5CCOCC5)c3CO4)C2)C1` [compound 18], the IC50 in experiment [1] was more than 10000 nM. The compound also came in with a Ki in experiment [2] (20 nM enz.) of 0.529 µM. Further, in experiment [2], the kinact was 8.2e-05 s⁻¹ and the kinact/KI came out at 155 M⁻¹ s⁻¹. In experiment [3], this compound gave an IC50 of 380 nM.

As to `C=CC(=O)N1CC(N2CCC(c3ccc4c(c3)Nc3ncnc(N5CCOCC5)c3[C@H](C)O4)CC2)C1` (single isomer, unassigned) [compound 57], the IC50 in experiment [1] was more than 10000 nM. In experiment [2] (20 nM enz.), the Ki was 0.0876 µM. Also, in experiment [2], the kinact was found to be 7.7e-05 s⁻¹ and the kinact/KI amounted to 879 M⁻¹ s⁻¹. The compound further gave an IC50 in experiment [3] of 263 nM.

Turning to `C=CC(=O)N1CC(N2CCC(c3ccc4c(c3)Nc3ncnc(N5CCOCC5)c3[C@@H](C)O4)CC2)C1` (single isomer, unassigned) [compound 56], in experiment [1], the IC50 is more than 10000 nM. For the same compound, the Ki in experiment [2] (20 nM enz.) was determined as 4.2 µM. In experiment [2], the kinact amounted to 8.48e-05 s⁻¹ and the kinact/KI turned out to be 20.2 M⁻¹ s⁻¹. Further, the IC50 in experiment [3] is 3240 nM.

Turning to `Cc1cc(C2CCN(C3(C)CN(C(=O)C#CCN(C)C)C3)CC2)cc2c1O[C@H](C)c1c(ncnc1N1CCS(=O)(=O)CC1)N2` [compound 181], the results for the IC50 in experiment [1] and in experiment [3] were 2340 nM and 41.7 nM, respectively.

As for `Cc1cc(C2CCN(C3CN(C(=O)C#CCCN(C)C)C3)CC2)cc2c1O[C@H](C)c1c(ncnc1N1CCS(=O)(=O)CC1)N2` [compound 178], the IC50 in experiment [1] was 5750 nM; in experiment [3], less than 9.77 nM.

As to `C=CC(=O)N1CCC(N2CC(c3cc(C)c4c(c3)Nc3ncnc(N5CCS(=O)(=O)CC5)c3CO4)C2)C1` (centres unmarked) [compound 112], the IC50 in experiment [1] is more than 10000 nM; in experiment [3] it was 204 nM.

As to `Cc1cc(C2CN([C@@H]3CCN(C(=O)C#CCN(C)C)C3)C2)cc2c1O[C@H](C)c1c(ncnc1N1CCS(=O)(=O)CC1)N2` (single isomer, unassigned) [compound 171], the IC50 was 8510 nM in experiment [1] and less than 9.77 nM in experiment [3].

`Cc1cc(C2CN([C@H]3CCN(C(=O)C#CCN(C)C)C3)C2)cc2c1O[C@H](C)c1c(ncnc1N1CCS(=O)(=O)CC1)N2` (single isomer, unassigned) [compound 170]: the IC50 is 7240 nM in experiment [1] and less than 9.77 nM in experiment [3].

On to `CC#CC(=O)N1CC[C@@H](N2CCC(c3cc(C)c4c(c3)Nc3ncnc(N5CCS(=O)(=O)CC5)c3CO4)CC2)C1` (single isomer, unassigned) [compound 135], for which the IC50 in experiment [1] was more than 10000 nM; in experiment [3], approximately 50.1 nM.

Regarding `CC#CC(=O)N1CC(OC2CCN(c3cc(C)c4c(c3)Nc3ncnc(N5CCS(=O)(=O)CC5)c3[C@@H](C)O4)CC2)C1` [compound 143], the IC50 in experiment [1] is more than 10000 nM; in experiment [3] it was 912 nM.

`CC#CC(=O)N1CCOC([C@H]2C[C@@H](c3cc(C)c4c(c3)Nc3ncnc(N5CCS(=O)(=O)CC5)c3[C@@H](C)O4)C2)C1` (single isomer, unassigned) [compound 187]: the values for the IC50 in experiment [1] and in experiment [3] were more than 10000 nM and 6170 nM, respectively.

In the case of `CC#CC(=O)N1CCOC([C@H]2C[C@@H](c3cc(C)c4c(c3)Nc3ncnc(N5CCS(=O)(=O)CC5)c3[C@@H](C)O4)C2)C1` (single isomer, unassigned) [compound 188], in experiment [1], the “CDK7_ A549 mutant hCDK7(pIC50)” value was less than 5. This compound showed an IC50 in experiment [3] of 389 nM.

As to `CC#CC(=O)N1CCC(N2CCC(c3cc(C)c4c(c3)Nc3ncnc(N5CCS(=O)(=O)CC5)c3CO4)CC2)C1` (centres unmarked) [compound 152], the IC50 in experiment [1] was approximately 8320 nM; in experiment [3], 64.6 nM.

For the compound `CC#CC(=O)N1CC[C@H](N2CC(c3cc(C)c4c(c3)Nc3ncnc(N5CCS(=O)(=O)CC5)c3CO4)C2)C1` [compound 126], the IC50 in experiment [1] was more than 10000 nM; in experiment [3], 513 nM.

With `CCC#CC(=O)N1CC[C@H](N2CC(c3cc(C)c4c(c3)Nc3ncnc(N5CCS(=O)(=O)CC5)c3[C@@H](C)O4)C2)C1` (single isomer, unassigned) [compound 168], the IC50 in experiment [1] is more than 10000 nM; in experiment [3] it was 132 nM.

In the case of `CC#CC(=O)N1CC[C@@H](N2CC(c3cc(C)c4c(c3)Nc3ncnc(N5CCS(=O)(=O)CC5)c3CO4)C2)C1` [compound 127], the IC50 in experiment [1] is more than 10000 nM; in experiment [3] it was 513 nM.

For `[2H]C([2H])([2H])C#CC(=O)N1CC(C)(N2CCC(c3cc(C)c4c(c3)Nc3ncnc(N5CCS(=O)(=O)CC5)c3[C@@H](C)O4)CC2)C1` [compound 179], the IC50 was more than 10000 nM in experiment [1] and approximately 56.2 nM in experiment [3].

Consider `CC#CC(=O)N1CC(N2C3CCC2CC(c2cc(C)c4c(c2)Nc2ncnc(N5CCS(=O)(=O)CC5)c2[C@@H](C)O4)C3)C1` (mixture of isomers) [compound 182], for which the values for the IC50 in experiment [1] and in experiment [3] were 6030 nM and approximately 72.4 nM, respectively.

Regarding `CC#CC(=O)N1CC[C@H](N2CC(c3cc(C)c4c(c3)Nc3ncnc(N5CCS(=O)(=O)CC5)c3[C@@H](C)O4)C2)C1` [compound 142], the “CDK7_ A549 mutant hCDK7(pIC50)” value in experiment [1] is less than 5. Moreover, the IC50 in experiment [3] is 355 nM.

As to `CC#CC(=O)N1CC[C@@](C)(N2CCC(c3cc(C)c4c(c3)Nc3ncnc(N5CCS(=O)(=O)CC5)c3[C@@H](C)O4)CC2)C1` (single isomer, unassigned) [compound 145], the IC50 was 4570 nM in experiment [1] and approximately 14.5 nM in experiment [3].

Consider `Cc1cc(C2CN([C@H]3CCN(C(=O)C#CCCN(C)C)C3)C2)cc2c1O[C@H](C)c1c(ncnc1N1CCS(=O)(=O)CC1)N2` (single isomer, unassigned) [compound 176], for which the IC50 in experiment [1] is 9120 nM; in experiment [3], less than 9.77 nM.

For `Cc1cc(C2CCN(C3(C)CN(C(=O)C#CCCN4CCOCC4)C3)CC2)cc2c1O[C@H](C)c1c(ncnc1N1CCS(=O)(=O)CC1)N2` [compound 180], the results for the IC50 in experiment [1] and in experiment [3] were more than 10000 nM and less than 9.77 nM, respectively.

For `CC#CC(=O)N1CC[C@@H](N2CC(c3cc(C)c4c(c3)Nc3ncnc(N5CCS(=O)(=O)CC5)c3[C@@H](C)O4)C2)C1` [compound 141], the “CDK7_ A549 mutant hCDK7(pIC50)” value in experiment [1] is recorded as less than 5. The compound further showed an IC50 in experiment [3] of 162 nM.

Take `CC#CC(=O)N1CCC([C@H]2CC[C@@H](c3cc(C)c4c(c3)Nc3ncnc(N5CCS(=O)(=O)CC5)c3[C@@H](C)O4)CC2)CC1` [compound 173]: the IC50 in experiment [1] and in experiment [3] was more than 10000 nM in each case.

For `CC#CC(=O)N1CCC([C@H]2CC[C@H](c3cc(C)c4c(c3)Nc3ncnc(N5CCS(=O)(=O)CC5)c3[C@@H](C)O4)CC2)CC1` [compound 172], the results for the IC50 in experiment [1] and in experiment [3] were more than 10000 nM and 355 nM, respectively.

With `CC#CC(=O)N1CCOC([C@H]2C[C@H](c3cc(C)c4c(c3)Nc3ncnc(N5CCS(=O)(=O)CC5)c3[C@@H](C)O4)C2)C1` (single isomer, unassigned) [compound 185], the IC50 in experiment [1] was more than 10000 nM; in experiment [3] it was approximately 380 nM.

In the case of `Cc1cc(C2CCN(C3CN(C(=O)C#CCCN4CCOCC4)C3)CC2)cc2c1O[C@H](C)c1c(ncnc1N1CCS(=O)(=O)CC1)N2` [compound 175], the figures for the IC50 in experiment [1] and in experiment [3] were approximately 10000 nM and approximately 26.3 nM, respectively.

These data come from US20240109912A1, “TRICYCLIC PYRIMIDINES AS CYCLIN-DEPENDENT KINASE 7 (CDK7) INHIBITORS” (JANSSEN PHARMACEUTICA NV, priority 2020, published 2024).
